Experimental data published in ChEMBL document CHEMBL4382283, “Discovery of a GPR40 Superagonist: The Impact of Aryl Propionic Acid α-Fluorination” (ACS Med Chem Lett, 2019).
Activity calls are given as the source filed them. The calls are words filed in the database; no cut-off is given here.

Assays:
[1] = target: T1, Free fatty acid receptor 1 (Homo sapiens, UniProt O14842); assay: Full agonist activity at human GPR40 expressed in CHOK1 cells assessed as induction of GalphaS-mediated cAMP accumulation after 30 mins HTRF assay; assay type: functional, cell-based
[2] = target: T1, Free fatty acid receptor 1; assay: Agonist activity at human GPR40 expressed in CHOK1 cells assessed as induction of Galphaq-mediated IP1 accumulation after 90 mins HTRF assay; assay type: functional, cell-based
[3] = target: Free fatty acid receptor 1 (Rattus norvegicus, UniProt Q8K3T4); assay: Agonist activity at rat GPR40 expressed in HEK293 cells assessed as induction of intracellular calcium mobilization by Fluo-8 dye based FLIPR assay; assay type: functional, cell-based
[4] = target: T1, Free fatty acid receptor 1; assay: Agonist activity at human GPR40 expressed in HEK293 cells assessed as induction of intracellular calcium mobilization by Fluo-8 dye based FLIPR assay; assay type: functional, cell-based
[5] = Drug metabolism in human hepatocytes at 10 uM after 2 hr by LC-MS analysis; assay type: ADME, cell-based, Hepatocyte
[6] = Half life in Sprague-Dawley rat at 2 mg/kg, iv by LC-MS/MS analysis; assay type: ADME, organism-based; details: in vivo
[7] = Half life in Sprague-Dawley rat at 10 mg/kg, po by LC-MS/MS analysis; assay type: ADME, organism-based; details: in vivo
[8] = Volume of distribution at steady state in Sprague-Dawley rat at 10 mg/kg, po or 2 mg/kg, iv by LC-MS/MS analysis; assay type: ADME, organism-based; details: in vivo, read-out: Vdss
[9] = Cmax in Sprague-Dawley rat at 10 mg/kg, po by LC-MS/MS analysis; assay type: ADME, organism-based; parameters: dose 10 mg/kg, route oral; details: in vivo
[10] = Metabolic stability in human hepatocytes assessed as parent compound remaining at 10 uM after 2 hr by LC-MS analysis; assay type: ADME, cell-based, Hepatocyte
[11] = Clearance in Sprague-Dawley rat at 10 mg/kg, po or 2 mg/kg, iv by LC-MS/MS analysis; assay type: ADME, organism-based; details: in vivo
[12] = Oral bioavailability in Sprague-Dawley rat at 10 mg/kg by LC-MS/MS analysis; assay type: ADME, organism-based; details: in vivo
Rattus norvegicus [13] = assay: Antiobesity activity in ZDF rat assessed as body weight loss at 10 mg/kg daily for 38 days relative to control; assay type: functional
Rattus norvegicus [14] = assay: In vivo agonist activity at GPR40 in ZDF rat assessed as increase in plasma total GLP1 level at 10 mg/kg daily for 38 days relative to control; assay type: functional
[15] = Plasma concentration in diet-induced obese mouse at 10 mg/kg, po; assay type: ADME, organism-based; details: in vivo
[16] = target: T1, Free fatty acid receptor 1
Description: Displacement of [3H]AM-1638 from human GPR40 expressed in CHOK1 cells assessed as association half life after 60 mins by TopCount method

[17] = target: T1, Free fatty acid receptor 1; remark: listed apart in the source
Description: Displacement of [3H]AM-1638 from human GPR40 expressed in CHOK1 cells assessed as dissociation half life after 40 mins by TopCount method

Rattus norvegicus [18] = assay: Antiobesity activity in ZDF rat assessed as reduction in food intake at 10 mg/kg daily for 38 days relative to control; assay type: functional; parameters: scale not given: the % may be the effect or the level left
[19] = target: T1, Free fatty acid receptor 1; assay: Positive allosteric modulation of human GPR40 expressed in CHOK1 cells assessed as increase in [3H]-(S)-3-Cyclopropyl-3-(3-(((1r,4S)-4-(2-fluoro-5-methoxyphenyl)cyclohexyl)methoxy)phenyl)propanoic acid binding after 60 mins by TopCount method; assay type: cell-based
Mus musculus = assay: Antidiabetic activity in diet-induced obese mouse assessed as reduction in blood glucose excursion at 10 mg/kg, po administered 45 mins prior to glucose challenge and measured up to 120 mins by OGTT; assay type: functional, organism-based
[20] = Protein binding in human plasma at 10 uM after 6 hrs by equilibrium dialysis method; assay type: ADME, cell-free; details: read-out: PPB
[21] = target: T1, Free fatty acid receptor 1; assay: Agonist activity at GPR40 in human islets assessed as induction of glucose-stimulated insulin secretion after 1 hr by HTRF assay

T1 sequence (O14842 whole entry): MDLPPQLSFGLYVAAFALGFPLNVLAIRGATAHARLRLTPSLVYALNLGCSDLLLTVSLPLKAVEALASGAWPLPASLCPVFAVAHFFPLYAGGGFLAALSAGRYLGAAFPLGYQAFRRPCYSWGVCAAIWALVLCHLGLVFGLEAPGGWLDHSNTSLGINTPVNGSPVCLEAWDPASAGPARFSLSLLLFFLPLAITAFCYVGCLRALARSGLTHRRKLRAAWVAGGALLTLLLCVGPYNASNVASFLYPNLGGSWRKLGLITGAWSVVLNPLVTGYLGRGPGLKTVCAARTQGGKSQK
Free fatty acid receptor 1 (Rattus norvegicus, UniProt Q8K3T4), sequence (Q8K3T4 whole entry): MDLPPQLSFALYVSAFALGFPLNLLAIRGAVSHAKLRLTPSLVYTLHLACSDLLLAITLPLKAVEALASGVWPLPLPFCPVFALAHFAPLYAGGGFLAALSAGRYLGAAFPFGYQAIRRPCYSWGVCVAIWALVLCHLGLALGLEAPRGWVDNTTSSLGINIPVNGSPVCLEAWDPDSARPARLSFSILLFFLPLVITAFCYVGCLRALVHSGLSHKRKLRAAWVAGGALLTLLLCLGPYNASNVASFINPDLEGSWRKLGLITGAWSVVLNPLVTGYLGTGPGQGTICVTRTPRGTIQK

SMILES	Activity [1]	EC50 [3] [nM]	EC50 [4] [nM]	Drug metabolism [5] [%]	half-life [6] [h]	half-life [7] [h]	Vd [8] [L/kg]	Cmax [9] [ng/mL]	Stability [10] [%]	clearance [11] [mL/min/kg]	EC50 [2] [nM]	bioavailability [12] [%]	also measured
COc1ccc(F)c(-c2ccc(COc3cccc([C@@H](CC(=O)O)C4CC4)c3)cc2C2=CCCC2(C)C)c1	Active	–	–	–	–	–	–	–	–	–	–	–	Activity [2]: Active
COc1ccc(F)c([C@H]2CC[C@H](COc3cccc([C@H](C4CC4)[C@H](F)C(=O)O)c3)CC2)c1	Active	163	54	–	–	–	–	–	–	–	–	–	–
COc1ccc(F)c([C@H]2CC[C@H](COc3cccc([C@H](C4CC4)[C@@H](F)C(=O)O)c3)CC2)c1	Active	28	1.1	7	4.7	4.3	0.9	3700	63	2.7	20	73.8	–
COc1ccc(F)c([C@H]2CC[C@H](COc3cccc([C@H](C4CC4)[C@@H](C)C(=O)O)c3)CC2)c1	–	4.9	2.2	–	–	–	–	–	–	–	22	–	–
COc1ccc(F)c([C@H]2CC[C@H](COc3cccc([C@H](C4CC4)[C@](C)(F)C(=O)O)c3)CC2)c1	Active	–	–	–	–	–	–	–	–	–	89	–	–
COc1ccc(F)c([C@H]2CC[C@H](COc3cccc([C@@H](CC(=O)O)C4CC4)c3)CC2)c1	Active	4.1	0.94	4	7.2	9.1	0.2	18200	56	0.4	199	91.4	Activity (Rattus norvegicus [13]): 6%; fold change (FC) (Rattus norvegicus [14]): 6.2; concentration [15]: 98.7 µM; T1/2 [16]: 48 s; T1/2 [17]: 8.4 s; Activity (Rattus norvegicus [18]): 10%; Activity [19]: Active; Activity (Mus musculus): Active; fraction unbound at 6 h, 10 µM [20]: < 0.001; EC50 [21]: 1370 nM
